Data as given in PubChem BioAssay AID2640 (Southern Research Specialized Biocontainment Screening …, 2010).
Activity calls are given as the source filed them.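 Rule for the calls: active = wild-type drop in polymyxin IC50 at top compound dose over twice that in the PhoP-lacking mutant; inactive = the rest.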

Key:
[1] = compound effect on Typhimurium polymyxin resistance – wild type vs phoP- strains, OD600 (AID 2640); conditions: S. Typhimurium polymyxin resistance, OD600 growth, 24 h; for IC50 shift difference / IC50 shift: measured here: polymyxin IC50 shift, at 150 µM; for IC50 shift difference: WT minus phoP-
[2] = system: S. Typhimurium polymyxin resistance, OD600 growth, 24 h; assay: as above
[3] = WT strain, stronger effect = higher value
[4] = phoP- strain, stronger effect = lower value
[5] = WT polymyxin IC50 at 150 uM, stronger effect = lower value
[6] = phoP- polymyxin IC50 at 150 uM, stronger effect = lower value

Row | Compound | IC50 shift difference ([1]; stronger effect = higher value) | IC50 shift [1, 3] | IC50 shift [1, 4] | IC50 [2] [µM] | IC50 [2, 5] [µM] | IC50 [2, 6] [µM] | outcome [1]
1 | S=C(NCc1ccc(Cl)cc1)Nc1ccncc1 | 20.4 | 3.93 | -16.4 | 30 | 3.59 | 24 | –
2 | O=C1C2=C(Nc3ccccc3SC2c2ccco2)c2ccccc21 (centres undefined) | 14.6 | 18.2 | 3.6 | 30 | 0.04 | – | –
3 | CCn1cc(C(=O)O)c(=O)c2cc(F)c(N3CCN(C(=S)NC(=O)c4ccccc4Cl)CC3)cc21 | 10.3 | 9.6 | -0.66 | 20 | 0.138 | 0.706 | –
4 | O=C(Nc1ccc(Cl)cc1)N1CCCN(Cc2ccccc2F)C1 | 27.6 | 5.14 | -22.4 | 30 | 0.62 | 26.9 | –
5 | Cc1ccc(Nc2cc(C)c3c(O)cccc3n2)cc1C | 2.63 | 2.54 | -0.09 | – | 2.25 | 0.088 | inactive
6 | COc1c(N2CCN(C(=S)NCc3ccccc3)C(C)C2)c(F)cc2c(=O)c(C(=O)O)cn(C3CC3)c12 (centres undefined) | 6.39 | 9.16 | 2.76 | 10 | – | 0.677 | –
